# Laboratory results as given in PubChem BioAssay (NCI).
#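 Five concentrations, 48 hours, 96-well plates. TGI marks complete inhibition of growth.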
# Key:
# Test in all cases: NCI tumour cell line growth inhibition, 48 h
# 786-0 renal = tested on: 786-0 renal
# A498 renal = tested on: A498 renal
# A549 NSCLC = tested on: A549 NSCLC
# ACHN renal = tested on: ACHN renal
# CAKI-1 renal = tested on: CAKI-1 renal
# CCRF-CEM leukemia = tested on: CCRF-CEM leukemia
# COLO 205 colon = tested on: COLO 205 colon
# DLD-1 colon = tested on: DLD-1 colon
# EKVX NSCLC = tested on: EKVX NSCLC
# HCT-116 colon = tested on: HCT-116 colon
# HCT-15 colon = tested on: HCT-15 colon
# HL-60(TB) leukemia = tested on: HL-60(TB) leukemia
# HOP-18 NSCLC = tested on: HOP-18 NSCLC
# HOP-62 NSCLC = tested on: HOP-62 NSCLC
# HOP-92 NSCLC = tested on: HOP-92 NSCLC
# HT29 colon = tested on: HT29 colon
# IGROV1 ovarian = tested on: IGROV1 ovarian
# K-562 leukemia = tested on: K-562 leukemia
# KM12 colon = tested on: KM12 colon
# KM20L2 colon = tested on: KM20L2 colon
# LOX IMVI melanoma = tested on: LOX IMVI melanoma
# LXFL 529 NSCLC = tested on: LXFL 529 NSCLC
# M14 melanoma = tested on: M14 melanoma
# M19-MEL melanoma = tested on: M19-MEL melanoma
# MALME-3M melanoma = tested on: MALME-3M melanoma
# MOLT-4 leukemia = tested on: MOLT-4 leukemia
# NCI-H226 lung = tested on: NCI-H226 lung
# NCI-H23 lung = tested on: NCI-H23 lung
# NCI-H460 lung = tested on: NCI-H460 lung
# NCI-H522 lung = tested on: NCI-H522 lung
# OVCAR-3 ovarian = tested on: OVCAR-3 ovarian
# OVCAR-4 ovarian = tested on: OVCAR-4 ovarian
# OVCAR-5 ovarian = tested on: OVCAR-5 ovarian
# OVCAR-8 ovarian = tested on: OVCAR-8 ovarian
# RXF 393 renal = tested on: RXF 393 renal
# SF-268 CNS = tested on: SF-268 CNS
# SF-295 CNS = tested on: SF-295 CNS
# SF-539 CNS = tested on: SF-539 CNS
# SK-MEL-2 melanoma = tested on: SK-MEL-2 melanoma
# SK-MEL-28 melanoma = tested on: SK-MEL-28 melanoma
# SK-OV-3 ovarian = tested on: SK-OV-3 ovarian
# SN12C renal = tested on: SN12C renal
# SNB-19 CNS = tested on: SNB-19 CNS
# SNB-75 CNS = tested on: SNB-75 CNS
# SNB-78 CNS = tested on: SNB-78 CNS
# SR leukemia = tested on: SR leukemia
# SW-620 colon = tested on: SW-620 colon
# TK-10 renal = tested on: TK-10 renal
# U251 CNS = tested on: U251 CNS
# UACC-257 melanoma = tested on: UACC-257 melanoma
# UACC-62 melanoma = tested on: UACC-62 melanoma
# UO-31 renal = tested on: UO-31 renal
# XF 498 CNS = tested on: XF 498 CNS
# DMS 273 small cell lung = tested on: DMS 273 small cell lung
# HCC-2998 colon = tested on: HCC-2998 colon
# RPMI-8226 leukemia = tested on: RPMI-8226 leukemia
# SK-MEL-5 melanoma = tested on: SK-MEL-5 melanoma
# DMS 114 small cell lung = tested on: DMS 114 small cell lung
structure (smiles),measurement,setting,value
CC(C)(C)c1ccnc(N=C2N=C(Nc3cc(C(C)(C)C)ccn3)c3ccccc32)c1,TGI,786-0 renal,43.9 µM
same,TGI,A498 renal,53.4 µM
same,TGI,A549 NSCLC,62.3 µM
same,TGI,ACHN renal,> 100 µM
same,TGI,CAKI-1 renal,53.1 µM
same,TGI,CCRF-CEM leukemia,> 100 µM
same,TGI,COLO 205 colon,> 100 µM
same,TGI,DLD-1 colon,> 100 µM
same,TGI,EKVX NSCLC,> 100 µM
same,TGI,HCT-116 colon,30.8 µM
same,TGI,HCT-15 colon,> 100 µM
same,TGI,HL-60(TB) leukemia,> 100 µM
same,TGI,HOP-18 NSCLC,59.6 µM
same,TGI,HOP-62 NSCLC,75.5 µM
same,TGI,HOP-92 NSCLC,47.1 µM
same,TGI,HT29 colon,75 µM
same,TGI,IGROV1 ovarian,72.1 µM
same,TGI,K-562 leukemia,> 100 µM
same,TGI,KM12 colon,> 100 µM
same,TGI,KM20L2 colon,59.6 µM
same,TGI,LOX IMVI melanoma,> 100 µM
same,TGI,LXFL 529 NSCLC,> 100 µM
same,TGI,M14 melanoma,> 100 µM
same,TGI,M19-MEL melanoma,> 100 µM
same,TGI,MALME-3M melanoma,63.7 µM
same,TGI,MOLT-4 leukemia,85.8 µM
same,TGI,NCI-H226 lung,> 100 µM
same,TGI,NCI-H23 lung,94.6 µM
same,TGI,NCI-H460 lung,> 100 µM
same,TGI,NCI-H522 lung,44.8 µM
same,TGI,OVCAR-3 ovarian,47.4 µM
same,TGI,OVCAR-4 ovarian,> 100 µM
same,TGI,OVCAR-5 ovarian,> 100 µM
same,TGI,OVCAR-8 ovarian,41.7 µM
same,TGI,RXF 393 renal,54.9 µM
same,TGI,SF-268 CNS,37.9 µM
same,TGI,SF-295 CNS,52 µM
same,TGI,SF-539 CNS,> 100 µM
same,TGI,SK-MEL-2 melanoma,> 100 µM
same,TGI,SK-MEL-28 melanoma,86.8 µM
same,TGI,SK-OV-3 ovarian,49 µM
same,TGI,SN12C renal,> 100 µM
same,TGI,SNB-19 CNS,44.4 µM
same,TGI,SNB-75 CNS,> 100 µM
same,TGI,SNB-78 CNS,75 µM
same,TGI,SR leukemia,> 100 µM
same,TGI,SW-620 colon,> 100 µM
same,TGI,TK-10 renal,46.1 µM
same,TGI,U251 CNS,51 µM
same,TGI,UACC-257 melanoma,76.1 µM
same,TGI,UACC-62 melanoma,> 100 µM
same,TGI,UO-31 renal,65.3 µM
same,TGI,XF 498 CNS,38.6 µM
CCC(CO)Nc1nc2c(c(=O)n(C)c(=O)n2C)n1CCO (stereo not given),TGI,786-0 renal,> 100 µM
same,TGI,A549 NSCLC,> 100 µM
same,TGI,ACHN renal,> 100 µM
same,TGI,COLO 205 colon,> 100 µM
same,TGI,DMS 273 small cell lung,> 100 µM
same,TGI,EKVX NSCLC,> 100 µM
same,TGI,HCC-2998 colon,> 100 µM
same,TGI,HCT-116 colon,> 100 µM
same,TGI,HCT-15 colon,> 100 µM
same,TGI,HOP-92 NSCLC,> 100 µM
same,TGI,HT29 colon,> 100 µM
same,TGI,IGROV1 ovarian,> 100 µM
same,TGI,K-562 leukemia,> 100 µM
same,TGI,KM12 colon,> 100 µM
same,TGI,KM20L2 colon,> 100 µM
same,TGI,LXFL 529 NSCLC,> 100 µM
same,TGI,M19-MEL melanoma,> 100 µM
same,TGI,MALME-3M melanoma,> 100 µM
same,TGI,MOLT-4 leukemia,> 100 µM
same,TGI,NCI-H226 lung,> 100 µM
same,TGI,NCI-H23 lung,> 100 µM
same,TGI,OVCAR-3 ovarian,> 100 µM
same,TGI,OVCAR-5 ovarian,> 100 µM
same,TGI,OVCAR-8 ovarian,> 100 µM
same,TGI,RPMI-8226 leukemia,> 100 µM
same,TGI,RXF 393 renal,> 100 µM
same,TGI,SF-268 CNS,> 100 µM
same,TGI,SF-295 CNS,> 100 µM
same,TGI,SF-539 CNS,> 100 µM
same,TGI,SK-MEL-2 melanoma,> 100 µM
same,TGI,SK-MEL-28 melanoma,> 100 µM
same,TGI,SK-MEL-5 melanoma,> 100 µM
same,TGI,SK-OV-3 ovarian,> 100 µM
same,TGI,SN12C renal,> 100 µM
same,TGI,SNB-19 CNS,> 100 µM
same,TGI,SNB-75 CNS,> 100 µM
same,TGI,SNB-78 CNS,53.5 µM
same,TGI,SR leukemia,> 100 µM
same,TGI,SW-620 colon,> 100 µM
same,TGI,TK-10 renal,> 100 µM
same,TGI,U251 CNS,> 100 µM
same,TGI,UACC-257 melanoma,> 100 µM
same,TGI,UACC-62 melanoma,> 100 µM
same,TGI,UO-31 renal,> 100 µM
Cc1ncc(CI)c(CI)c1O,TGI,786-0 renal,35.3 µM
same,TGI,A498 renal,> 100 µM
same,TGI,CAKI-1 renal,> 100 µM
same,TGI,CCRF-CEM leukemia,23.2 µM
same,TGI,COLO 205 colon,> 100 µM
same,TGI,DLD-1 colon,55.8 µM
same,TGI,DMS 114 small cell lung,> 100 µM
same,TGI,DMS 273 small cell lung,32.1 µM
same,TGI,HCC-2998 colon,33.3 µM
same,TGI,HCT-116 colon,31.4 µM
same,TGI,HL-60(TB) leukemia,5.29 µM
same,TGI,HOP-62 NSCLC,35.3 µM
same,TGI,HOP-92 NSCLC,> 100 µM
same,TGI,IGROV1 ovarian,> 100 µM
same,TGI,K-562 leukemia,31.5 µM
same,TGI,LXFL 529 NSCLC,> 100 µM
same,TGI,M14 melanoma,> 100 µM
same,TGI,M19-MEL melanoma,> 100 µM
same,TGI,MALME-3M melanoma,42.5 µM
same,TGI,MOLT-4 leukemia,41.6 µM
same,TGI,NCI-H226 lung,6.1 µM
same,TGI,NCI-H23 lung,48.2 µM
same,TGI,NCI-H460 lung,> 100 µM
same,TGI,NCI-H522 lung,12.7 µM
same,TGI,OVCAR-4 ovarian,> 100 µM
same,TGI,RPMI-8226 leukemia,31.4 µM
same,TGI,SF-268 CNS,54.7 µM
same,TGI,SF-539 CNS,43.8 µM
same,TGI,SK-MEL-2 melanoma,42.4 µM
same,TGI,SK-MEL-28 melanoma,44.6 µM
same,TGI,SK-OV-3 ovarian,> 100 µM
same,TGI,SN12C renal,35.2 µM
same,TGI,SNB-75 CNS,41.2 µM
same,TGI,SNB-78 CNS,> 100 µM
same,TGI,SR leukemia,36.7 µM
same,TGI,UACC-62 melanoma,> 100 µM
same,TGI,UO-31 renal,6.28 µM
same,TGI,XF 498 CNS,38.4 µM
